“And” between values parts separate entries of the source, which are not always exact repeats. Equal entries are not always repeated.
How the values were obtained:
Tie2 = system: Tie2; design: method as in printed; conditions: preclinical, ref not given; cited from earlier work
rodents = system: rodents; design: method as in printed; conditions: toxicology studies, ref not given; cited from earlier work
BSEP = system: BSEP; design: method as in printed; conditions: preclinical testing, ref not given; cited from earlier work
dogs = system: dogs; design: method as in printed; conditions: toxicology studies, ref not given; cited from earlier work
FGFR1 = system: FGFR1; design: method as in printed; conditions: preclinical, ref not given; cited from earlier work
AurB = system: AurB; design: method as in printed; conditions: preclinical, ref not given; cited from earlier work
OCT1 = system: OCT1; design: method as in printed; conditions: preclinical testing, ref not given; cited from earlier work
CYP3A4 = system: CYP3A4; design: method as in printed; conditions: preclinical testing, ref not given; cited from earlier work
OCT2 = system: OCT2; design: method as in printed; conditions: preclinical testing, ref not given; cited from earlier work
Bmx = system: Bmx; design: method as in printed; conditions: preclinical, ref not given; cited from earlier work
[1] = system: patients with advanced solid tumours; assay: Phase 1 safety: treatment-related adverse events (CTCAE v4.03); type: in vivo, human
Description: All patients who received at least one dose of CFI-400945 were included in analyses of the safety-evaluable population. Data cut-off for the safety-evaluable population was June 5, 2018. Adverse events (AEs) were assessed according to the National Cancer Institute (NCI) Common Terminology Criteria for Adverse Events (CTCAE) v4.03. Investigators determined the causal relationship of an AE as either unrelated, possibly, probably, or related to study drug. Further information is available in Supplementary Information 1d.
Investigators managed any AE until resolution, stabilization, or until the AE was considered no longer clinically significant. All AE and serious AE (SAE) were recorded in source documents and individual case report forms from the time of first dose of study drug until 30 days following the last dose of study drug.
Safety evaluations were conducted at screening and during Cycle 1 on Day 1, 2, 4, 8, 11, 15, 22, and 28. In the expansion cohort, following the run-in amendment, safety evaluations were conducted on Cycle 0 Day 1, 2, 4, 8, and 11, then as above for Cycle 1. Evaluations included pre-defined combinations of medical history, physical examination, vital signs, clinical laboratory studies, and ECOG performance status.

advanced solid tumours = assay: Phase 1 efficacy assessment (RECIST v1.1); type: in vivo, human
Description: Diagnostic imaging response assessments (computed tomography or magnetic resonance imaging) were performed at baseline and at the end of every two cycles or as clinically indicated. All patients who had at least one post-baseline radiographic assessment of target, non-target, and new lesions constituted the efficacy-evaluable population. Patients were evaluated for complete response (CR), partial response (PR), stable disease (SD) ≥6 months, or progressive disease as determined by RECIST v1.1.[17] Objective response rate (ORR = CR + PR) and clinical benefit rate (CBR = CR + PR + SD ≥ 6 months) were evaluated. Data cut-off for the efficacy-evaluable population was January 21, 2019.

[2] = safety-evaluable population (n = 52)
[3] = efficacy-evaluable population (n = 49)
[4] = patient with AKT1 E17K mutant endometrioid endometrial carcinoma
[5] = patient with MSS endometrial carcinoma

## COc1ccc2c(c1)[C@]1(C[C@H]1c1ccc3c(/C=C/c4ccc(CN5C[C@@H](C)O[C@@H](C)C5)cc4)n[nH]c3c1)C(=O)N2 [CFI-400945]
Tie2
  IC50: < 100 nM
rodents
  primary toxicities: haematopoietic effects (myeloid suppression, bone marrow hypocellularity)
BSEP
  inhibition of BSEP: inhibitor
dogs
  primary toxicities: haematopoietic effects (myeloid suppression, bone marrow hypocellularity)
FGFR1
  IC50: < 100 nM
AurB
  IC50: < 100 nM
OCT1
  inhibition of OCT1: inhibitor
CYP3A4
  time-dependent inhibition of CYP3A4: time-dependent inhibitor
OCT2
  inhibition of OCT2: inhibitor
Bmx
  IC50: < 100 nM
[1]; 48 mg dose level
  grade 2 neutropenia: one patient
[1]; 48 mg, at data cut-off
  long-term tolerability: time one patient remained on treatment: > 3 years
[1]; 64 mg
  patients dose reduced: No patients
[1]; 3 patients, at 72 mg and 96 mg dose levels, recurrent neutropenia
  patients dose reduced: 6%
[1]; 3–32 mg cohort (n = 21)
  Anorexia, treatment-related, Grade 1/2: 4 (19) N (%)
  Anorexia, treatment-related, Grade 3/4: 0 (0) N (%)
  Dehydration, treatment-related, Grade 1/2: 1 (5) N (%)
  Dehydration, treatment-related, Grade 3/4: 0 (0) N (%)
  Diarrhoea, treatment-related, Grade 1/2: 4 (19) N (%)
  Diarrhoea, treatment-related, Grade 3/4: 0 (0) N (%)
  Dyspepsia, treatment-related, Grade 1/2: 1 (5) N (%)
  Dyspepsia, treatment-related, Grade 3/4: 0 (0) N (%)
  Fatigue, treatment-related, Grade 1/2: 5 (24) N (%)
  Fatigue, treatment-related, Grade 3/4: 0 (0) N (%)
  Hypomagnesaemia, treatment-related, Grade 1/2: 0 (0) N (%)
  Hypomagnesaemia, treatment-related, Grade 3/4: 0 (0) N (%)
  Nausea, treatment-related, Grade 1/2: 3 (14) N (%)
  Nausea, treatment-related, Grade 3/4: 0 (0) N (%)
  Neutropenia, treatment-related, Grade 1/2: 0 (0) N (%)
  Neutropenia, treatment-related, Grade 3/4: 0 (0) N (%)
  Vomiting, treatment-related, Grade 1/2: 1 (5) N (%)
  Vomiting, treatment-related, Grade 3/4: 0 (0) N (%)
[1]; 3–96 mg cohort (n = 52)
  Anorexia, All trAEs: 10 (19) N (%)
  Dehydration, All trAEs: 3 (6) N (%)
  Diarrhoea, All trAEs: 11 (21) N (%)
  Dyspepsia, All trAEs: 3 (6) N (%)
  Fatigue, All trAEs: 19 (37) N (%)
  Hypomagnesaemia, All trAEs: 3 (6) N (%)
  Nausea, All trAEs: 14 (27) N (%)
  Neutropenia, All trAEs: 11 (21) N (%)
  Vomiting, All trAEs: 4 (8) N (%)
[1]; 6/10 events
  grade 3/4 neutropenic events occurring in Cycle 1: 60%
[1]; 10/52 patients, all dose levels
  grade 3/4 treatment-related neutropenia, patients: 19%
[1]; 27 of 52 patients
  patients with dose interruptions: 52%
[1]; 48–64 mg cohort (n = 18)
  Anorexia, treatment-related, Grade 1/2: 2 (11) N (%)
  Anorexia, treatment-related, Grade 3/4: 0 (0) N (%)
  Dehydration, treatment-related, Grade 1/2: 1 (6) N (%)
  Dehydration, treatment-related, Grade 3/4: 0 (0) N (%)
  Diarrhoea, treatment-related, Grade 1/2: 3 (17) N (%)
  Diarrhoea, treatment-related, Grade 3/4: 1 (6) N (%)
  Dyspepsia, treatment-related, Grade 1/2: 1 (6) N (%)
  Dyspepsia, treatment-related, Grade 3/4: 0 (0) N (%)
  Fatigue, treatment-related, Grade 1/2: 9 (50) N (%)
  Fatigue, treatment-related, Grade 3/4: 0 (0) N (%)
  Hypomagnesaemia, treatment-related, Grade 1/2: 1 (6) N (%)
  Hypomagnesaemia, treatment-related, Grade 3/4: 0 (0) N (%)
  Nausea, treatment-related, Grade 1/2: 5 (28) N (%)
  Nausea, treatment-related, Grade 3/4: 0 (0) N (%)
  Neutropenia, treatment-related, Grade 1/2: 1 (6) N (%)
  Neutropenia, treatment-related, Grade 3/4: 3 (17) N (%)
  Vomiting, treatment-related, Grade 1/2: 1 (6) N (%)
  Vomiting, treatment-related, Grade 3/4: 1 (6) N (%)
[1]; 72–96 mg cohort (n = 13)
  Anorexia, treatment-related, Grade 1/2: 4 (31) N (%)
  Anorexia, treatment-related, Grade 3/4: 0 (0) N (%)
  Dehydration, treatment-related, Grade 1/2: 1 (8) N (%)
  Dehydration, treatment-related, Grade 3/4: 0 (0) N (%)
  Diarrhoea, treatment-related, Grade 1/2: 3 (23) N (%)
  Diarrhoea, treatment-related, Grade 3/4: 0 (0) N (%)
  Dyspepsia, treatment-related, Grade 1/2: 1 (8) N (%)
  Dyspepsia, treatment-related, Grade 3/4: 0 (0) N (%)
  Fatigue, treatment-related, Grade 1/2: 5 (38) N (%)
  Fatigue, treatment-related, Grade 3/4: 0 (0) N (%)
  Hypomagnesaemia, treatment-related, Grade 1/2: 2 (15) N (%)
  Hypomagnesaemia, treatment-related, Grade 3/4: 0 (0) N (%)
  Nausea, treatment-related, Grade 1/2: 6 (46) N (%)
  Nausea, treatment-related, Grade 3/4: 0 (0) N (%)
  Neutropenia, treatment-related, Grade 1/2: 0 (0) N (%)
  Neutropenia, treatment-related, Grade 3/4: 7 (54) N (%)
  Vomiting, treatment-related, Grade 1/2: 1 (8) N (%)
  Vomiting, treatment-related, Grade 3/4: 0 (0) N (%)
[1]; in vivo
  median time for neutrophils to recover to grade ≤1: 7 days
  median time to first grade 3/4 neutropenic event: 18 days
  time for neutrophils to recover to grade ≤1, range: 6 to 14 days
  time to first grade 3/4 neutropenic event, range: 14 to 126 days
[1]; one DLT at 72 mg, one DLT in 64 mg cohort
  treatment-related AEs leading to study discontinuation: two patients
[1]; [2]
  treatment-related anorexia, patients: 19%
  treatment-related dehydration, patients: 6%
  treatment-related diarrhoea, patients: 21%
  treatment-related dyspepsia, patients: 6%
  treatment-related fatigue, patients: 37%
  treatment-related hypomagnesaemia, patients: 6%
  treatment-related neutropenia, patients: 21%
  treatment-related vomiting, patients: 8%
Advanced solid tumours; 35/49 patients
  Progressive disease as best response: 71%
Advanced solid tumours; RECIST v1.1
  patients with SD ≥6 months: two and 2/13
Advanced solid tumours; adenoid cystic carcinoma, 48 mg
  partial responses (PR): One PR
Advanced solid tumours; efficacy-evaluable cohort, 1/49
  ORR: 2%
Advanced solid tumours; efficacy-evaluable cohort, 3/49
  CBR: 6%
Advanced solid tumours; [3]
  complete responses (CR): No CRs
  duration on study, range: 0.1–40.7 months
  median duration on study: 1.9 months
  median progression-free survival: 3.2 months
  patients with SD as best response: 13 patients
  progression-free survival, 95% confidence interval: 1.6–4.9 months
Advanced solid tumours; in vivo
  lowest dose with evidence of antitumour activity: 48 mg
Advanced solid tumours; [4]
  target lesion reduction: −19%
  time on study with SD: 6 cycles
Advanced solid tumours; patient with KRAS-mutant, MSS colorectal cancer, 48 mg
  time on study: 12 cycles
Advanced solid tumours; [5]
  duration of SD: 8 cycles
  reduction in target lesions: 3.7%
Advanced solid tumours; patient with adenoid cystic carcinoma, 48 mg
  duration of PR / time on trial, ongoing at data cut-off: 45 cycles

From PMC6738068 (British Journal of Cancer, 2019)
